Data published in patent US20240424103A1, “ANTICANCER AGENT, PRODRUG OF ANTICANCER AGENT, METHOD FOR KILLING CANCER CELL IN VITRO, CANCER […], AND CANCER TREATMENT DEVICE” (NATIONAL INSTITUTE OF ADVANCED INDUSTRIAL SCIENCE AND …, priority 2021, published 2024).
Several values for one entry are separate records, joined by “and”; a condition that tells them apart may be missing. Equal entries are not always repeated.

Columns and labels:
RGK-KO cells = assay: Proton beam irradiation of RGK-KO cells cultured on ^15N_5-ALA-containing culture medium, surviving fraction by fluorescent protein image and DAPI staining; format: cell-based, rat; details: ^15N_5-ALA in medium 24 hours before irradiation, charge amount 4.0 nC, 1.3 MeV
From the text: The RGK-KO cells and RGM-GFP cells cultured on a culture medium containing ^15N_5-ALA and the RGK-KO cells and RGM-GFP cells cultured on a culture medium not containing ^15N_5-ALA were in each instance held sealed in a vacuum along with the culture medium and were irradiated with a proton beam at a prescribed ion charge amount. With regard to the proton beam energy, considering the attenuation of the proton beam energy by the Torelina film and the culture solution sealed in the vacuum, the sample was irradiated at 1.3 MeV to match the 1.21 MeV resonance energy.
The upper sections show images of RGM-GFP cells made to metabolize a fluorescent protein by genetic recombination; the lower sections each show photographs in which the dead cells are identified by the DAPI staining method, which stains the DNA in the nucleus of dead cells. […]
The photographs in FIG. 20 show the case of a proton beam irradiation amount of charge of 4.0 nC for both cells. Genes for the metabolism of fluorescent protein are also incorporated in the RGK-KO cells, and the cells present a red color when observed with a fluorescence microscope. […]

[1] = system: rat gastric mucosal-derived cancer cells (RGK-KO) versus rat gastric mucosal-derived cells (RGM-GFP); assay: Cellular intake of ^15N_5-ALA by cancer cells and normal cells, quantitated by 4.43 MeV gamma rays from the ^15N resonance nuclear reaction; format: cell-based; details: 24 hours after the addition of ^15N_5-ALA; 1 mmol/L in culture medium; RGK-KO vs RGM-GFP
Experimental: Rat gastric mucosal-derived cells (RGM-GFP) were prepared as normal cells and rat gastric mucosal-derived cancer cells (RGK-KO) were prepared as cancer cells, and the difference in cellular intake of ^15N_5-ALA between the RGM-GFP cells and RGK-KO cells was confirmed as follows. The rat gastric mucosal-derived cells and rat gastric mucosal-derived cancer cells are both derived from the rat and are widely used in research on anticancer agents because they have the same gene sequence (refer to Non-Patent Documents 6 and 7).
The RGM-GFP cells and RGK-KO cells were cultured for 3 or 4 days on a culture solution adapted to each and were grown to 80% confluence; this was followed by the addition of ^15N_5-ALA and the amount of ^15N intake per cell with elapsed time was measured. […] The cells, which had grown with attachment to the bottom of the Petri dish, were detached from the Petri dish by the addition of trypsin, and the concentration of the liberated cells was measured.
The concentration was adjusted, and 10^5 cells/2 μL was dripped onto a crystalline silicon substrate and drying was carried out. […] The 4.43 MeV gamma radiation emitted by this resonance nuclear reaction with ^15N was measured using a Bi4Ge3O12 (BGO) detector. […]
The specific procedure for quantitating the ^15N_5-ALA intake by the RGM-GFP cells and RGK-KO cells was as follows. […]

[15NH2]CC(=O)CCC(=O)O [^15N_5-ALA, 5-aminolevulinic acid in which the nitrogen is nitrogen-15]
surviving fraction immediately after (within three hours) proton beam irradiation (RGK-KO cells): 73.5% and 85.5%
intake of ^15N_5-ALA by cancer cells relative to the intake by the normal cells [1]: at least 5 times
